Read-outs that look alike come from different tables or passages of the source. One block for each molecule: values may come before it.
Test system: PMA-differentiated THP-1 cells
Assay: IL-1β production in PMA-differentiated THP-1 cells stimulated with gramicidin (hTHP-1 assay containing 2% fetal bovine serum; Procedures 1 and 2)
Format: cell-based, human
Details: 2% fetal bovine serum
Summary of the method: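 Compound titrations in 0.37% final DMSO were added to THP-1 cells that had been plated after 16-18 h PMA treatment, 50,000 per well in 2% FBS. One hour later the cells received gramicidin (5 μM, 2 h) and were centrifuged. HTRF detected IL-1β in the collected supernatants.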

[1] = Homo sapiens, THP-1, Table B2, numeric bounds, read-out: hTHP-1 IC50
[2] = Table B1, class symbols, read-out: Average IC50 of compounds in hTHP-1 assay: hTHP-1 IC50
[3] = Table B3, hTHP-1 assay, class symbols, read-out: IC50
[4] = Homo sapiens, THP-1, Table B2, class symbols, read-out: hTHP-1 IC50
[5] = Table B2, class symbols, read-out: hTHP-1 IC50
[6] = Homo sapiens, THP-1, Table B4, class symbols, read-out: hTHP-1 IC50

Structure (SMILES): C[C@@H]1CCc2c1nc1c(c2NC(=O)N=S(N)(=O)c2ccn(-c3ccccc3)n2)CCC1 (single isomer, unassigned) [Compound 700a, (S) or (R)-N′-(((R)-3-methyl-1,2,3,5,6,7-hexahydrodicyclopenta [b,e]pyridin-8-yl)carbamoyl)-1-phenyl-1H-pyrazole-3-sulfonimidamide]
IC50 [1]: > 30 µM

Structure (SMILES): CC(C)(O)c1cc(F)c(S(N)(=O)=NC(=O)Nc2c3c(nc(C(F)(F)F)c2C2CC2)CCC3)s1 (single isomer, unassigned) [Example 659, (R) or (S)-N′-((3-cyclopropyl-2-(trifluoromethyl)-6,7-dihydro-5H-cyclopenta[b]pyridin-4-yl)carbamoyl)-3-fluoro-5-(2-hydroxypropan-2-yl) thiophene-2-sulfonimidamide]
IC50 [3]: 0.2 to 1 µM

Structure (SMILES): CCc1csc(S(N)(=O)=NC(=O)Nc2c3c(nc4c2CC[C@H]4C)CCC3)c1 (single isomer, unassigned) [Compound 721b, (R) or (S)-4-Ethyl-N′-(((R)-3-methyl-1,2,3,5,6,7-hexahydrodicyclopenta[b, e]pyridin-8-yl)carbamoyl)thiophene-2-sulfonimidamide]
IC50 [5]: 0.04 to 0.2 µM

Structure (SMILES): CC(C)(O)c1ncc(S(N)(=O)=NC(=O)Nc2c3c(nc4c2CCC4F)CCC3)s1 (stereo not shown) [Compound 183, N′-((3-fluoro-1,2,3,5,6,7-hexahydrodicyclopenta[b,e]pyridin-8-yl)carbamoyl)-2-(2-hydroxypropan-2-yl)thiazole-5-sulfonimidamide]
IC50 [2]: 5 to 30 µM

Structure (SMILES): CC(C)c1ncc(F)c(C(C)C)c1NC(=O)N=S(N)(=O)c1ccc(CN(C)C)cc1 (stereo not shown) [Compound 132, 4-((dimethylamino)methyl)-N′-((5-fluoro-2,4-diisopropylpyridin-3-yl)carbamoyl)benzenesulfon-imidamide]
IC50 (Homo sapiens, THP-1, Table B1, numeric bounds, read-out: Average IC50 of compounds in hTHP-1 assay: hTHP-1 IC50): > 27 µM

Structure (SMILES): C[C@@H]1CCc2c1nc1c(c2NC(=O)N=S(N)(=O)c2ccn(C)n2)CCC1 (single isomer, unassigned) [Compound 639a, (S) or (R)-1-Methyl-N′-(((R)-3-methyl-1,2,3,5,6,7-hexahydrodicyclopenta [b,e]pyridin-8-yl)carbamoyl)-1H-pyrazole-3-sulfonimidamide]
IC50 [1]: > 30 µM

Structure (SMILES): CC(C)(O)c1csc(S(N)(=O)=NC(=O)Nc2cc(C3CC3)nc3c2CCC3)c1 (single isomer, unassigned) [Compound 176a, (S) or (R)-N′-((2-cyclopropyl-6,7-dihydro-5H-cyclopenta[b]pyridin-4-yl)carbamoyl)-4-(2-hydroxypropan-2-yl)thiophene-2-sulfonimidamide]
IC50 [1]: > 30 µM

Structure (SMILES): CC(C)n1cc(F)c(S(N)(=O)=NC(=O)Nc2c3c(nc4c2CC[C@H]4C)CCC3)n1 (stereo partly drawn) [Example 739, 4-Fluoro-1-isopropyl-N′-(((R)-3-methyl-1,2,3,5,6,7-hexahydrodicyclopenta[b,e]pyridin-8-yl)carbamoyl)-1H-pyrazole-3-sulfonimidamide]
IC50 [6]: 0.008 to 0.04 µM

Structure (SMILES): CC1CCc2c1nc1c(c2NC(=O)N=S(N)(=O)c2cc(C(C)(C)O)n(-c3ccccc3)n2)CCC1 (single isomer, unassigned) [Compound 664b, (R) or (S)-5-(2-Hydroxypropan-2-yl)-N′-((3-methyl-1,2,3,5,6,7-hexahydrodicyclopenta [b,e]pyridin-8-yl)carbamoyl)-1-phenyl-1H-pyrazole-3-sulfonimidamide]
IC50 [4]: 1 to 5 µM

Structure (SMILES): Cc1nc2c(c(NC(=O)N=S(N)(=O)c3cc(C(C)(C)O)cs3)c1C(C)C)CCC2 (single isomer, unassigned) [Compound 622a, (S) or (R)-4-(2-Hydroxypropan-2-yl)-N′-((3-isopropyl-2-methyl-6,7-dihydro-5H-cyclopenta[b]pyridin-4-yl)carbamoyl) thiophene-2-sulfonimidamide]
IC50 [5]: 5 to 30 µM

Structure (SMILES): CCn1cc(F)c(S(N)(=O)=NC(=O)Nc2c3c(nc(C(F)(F)F)c2-c2ccccc2)CCC3)n1 (stereo not shown) [Example 742, 1-Ethyl-4-fluoro-N′-((3-phenyl-2-(trifluoromethyl)-6,7-dihydro-5H-cyclopenta[b]pyridin-4-yl)carbamoyl)-1H-pyrazole-3-sulfonimidamide]
IC50 [6]: 0.008 to 0.04 µM

Structure (SMILES): COC(C)(C)c1nc(CO)c(S(N)(=O)=NC(=O)Nc2c3c(nc4c2CCC4(C)C)CCC3)s1 (stereo not shown) [Compound 648, N′-((3,3-dimethyl-1,2,3,5,6,7-hexahydrodicyclopenta[b,e]pyridin-8-yl)carbamoyl)-4-(hydroxymethyl)-2-(2-methoxypropan-2-yl)thiazole-5-sulfonimidamide]
IC50 [4]: 1 to 5 µM

Structure (SMILES): CC(C)(O)c1ccnc(S(N)(=O)=NC(=O)Nc2c3c(nc4c2CCC4(C)C)CCC3)c1 (stereo not shown) [Compound 620, N′-((3,3-dimethyl-1,2,3,5,6,7-hexahydrodicyclopenta[b,e]pyridin-8-yl)carbamoyl)-4-(2-hydroxypropan-2-yl)pyridine-2-sulfonimidamide]
IC50 [4]: 5 to 30 µM

Structure (SMILES): CC(C)(O)c1ncc(S(N)(=O)=NC(=O)Nc2c3c(nc4c2CCC4)CCC3)s1 (single isomer, unassigned) [Compound 128a, (R) or (S)-N′-((1,2,3,5,6,7-hexahydrodicyclo-penta[b,e]pyridin-8-yl)carbamoyl)-2-(2-hydroxypropan-2-yl)thiazole-5-sulfonimidamide]
IC50 [2]: 0.2 to 1 µM

Continued, values first:

IC50 [2]: 5 to 30 µM
Structure (SMILES): CC(C)c1ncc(F)c(C(C)C)c1NC(=O)N=S(N)(=O)c1nc(C(C)(C)O)cs1 (single isomer, unassigned) [Compound 163b, (S) or (R)-N′-((5-fluoro-2,4-diisopropylpyridin-3-yl)carbamoyl)-4-(2-hydroxypropan-2-yl)thiazole-2-sulfonimidamide]

IC50 [4]: 0.2 to 1 µM
Structure (SMILES): Cc1nc2c(c(NC(=O)N=S(N)(=O)c3ncc(C(C)(C)O)s3)c1C1CC1)CCC2 (single isomer, unassigned) [Compound 618b, (R) or (S)-N′-((3-cyclopropyl-2-methyl-6,7-dihydro-5H-cyclopenta[b]pyridin-4-yl)carbamoyl)-5-(2-hydroxypropan-2-yl)thiazole-2-sulfonimidamide]

IC50 [4]: 0.04 to 0.2 µM
Structure (SMILES): CCn1ccc(S(N)(=O)=NC(=O)Nc2c3c(nc4c2CCC4(C)C)CCC3)n1 (stereo not shown) [Compound 603, N′-((3,3-dimethyl-1,2,3,5,6,7-hexahydrodicyclopenta[b,e]pyridin-8-yl)carbamoyl)-1-ethyl-1H-pyrazole-3-sulfonimidamide]

IC50 (Homo sapiens, THP-1, Table B1, class symbols, read-out: Average IC50 of compounds in hTHP-1 assay: hTHP-1 IC50): 0.04 to 0.2 µM
Structure (SMILES): CC(C)(O)c1csc(S(N)(=O)=NC(=O)Nc2c3c(nc4c2CCC4(C)C)CCC3)c1 (stereo not shown) [Compound 127, N′-((3,3-dimethyl-1,2,3,5,6,7-hexahydrodicyclopenta[b,e]pyridin-8-yl)carbamoyl)-4-(2-hydroxypropan-2-yl)thiophene-2-sulfonimidamide]

IC50 [5]: 5 to 30 µM
Structure (SMILES): Cc1c(C2CC2)nc2c(c1NC(=O)N=S(N)(=O)c1cnn3c1OCCC3)CCC2 (single isomer, unassigned) [Compound 306a, (S) or (R)-N′-((2-cyclopropyl-3-methyl-6,7-dihydro-5H-cyclopenta[b]pyridin-4-yl)carbamoyl)-6,7-dihydro-5H-pyrazolo[5,1-b] [1,3]oxazine-3-sulfonimidamide]

IC50 [2]: 5 to 30 µM
Structure (SMILES): Cc1sc(S(N)(=O)=NC(=O)Nc2c3c(nc4c2CCC4(C)C)CCC3)cc1C(C)(C)O (single isomer, unassigned) [Compound 169a, (S) or (R)-N′-((3,3-dimethyl-1,2,3,5,6,7-hexahydro-dicyclopenta[b,e]pyridin-8-yl)carbamoyl)-4-(2-hydroxypropan-2-yl)-5-methylthiophene-2-sulfonimidamide]

IC50 [5]: 0.2 to 1 µM
Structure (SMILES): CC(C)c1c(C2CC2)nc2c(c1NC(=O)N=S(N)(=O)c1cc(C(C)(C)O)cs1)CCC2 (single isomer, unassigned) [Compound 667b, (R) or (S)-N′-((2-cyclopropyl-3-isopropyl-6,7-dihydro-5H-cyclopenta[b]pyridin-4-yl)carbamoyl)-4-(2-hydroxypropan-2-yl)thiophene-2-sulfonimidamide]

IC50 [3]: 5 to 30 µM
Structure (SMILES): CCc1ncc(S(N)(=O)=NC(=O)Nc2c3c(nc4c2CC[C@H]4C)CCC3)s1 (single isomer, unassigned) [Example 673, (S) or (R)-2-ethyl-N′-(((R)-3-methyl-1,2,3,5,6,7-hexahydrodicyclopenta[b,e]pyridin-8-yl)carbamoyl) thiazole-5-sulfonimidamide]

IC50 [1]: > 30 µM
Structure (SMILES): CC(C)(O)c1cc(C#N)cc(S(N)(=O)=NC(=O)Nc2c3c(nc4c2CCC4(C)C)CCC3)c1 (single isomer, unassigned) [Compound 674a, (S) or (R)-3-Cyano-N′-((3,3-methyl-1,2,3,5,6,7-hexahydrodicyclopenta [b,e]pyridin-8-yl)carbamoyl)-5-(2-hydroxypropan-2-yl)benzene-sulfonimidamide]

IC50 (Table B4, class symbols, read-out: hTHP-1 IC50): 1 to 5 µM
Structure (SMILES): CC(C)n1cc(F)c(S(N)(=O)=NC(=O)Nc2c3c(nc4c2CC[C@H]4C)CCC3)n1 (single isomer, unassigned) [Example 758, (S) or (R)-4-fluoro-1-isopropyl-N′-(((R)-3-methyl-1,2,3,5,6,7-hexahydrodicyclopenta[b,e]pyridin-8-yl)carbamoyl)-1H-pyrazole-3-sulfonimidamide]

IC50 [1]: > 30 µM
Structure (SMILES): CC(C)(O)c1cc(Br)c(S(N)(=O)=NC(=O)Nc2c3c(nc4c2CCC4)CCC3)s1 (single isomer, unassigned) [Compound 690a, (S) or (R)-3-Bromo-N′-((1,2,3,5,6,7-hexahydrodicyclopenta [b,e]pyridin-8-yl)carbamoyl)-5-(2-hydroxypropan-2-yl)thiophene-2-sulfonamidamide]

— patent US20230031406A1, “COMPOUNDS AND COMPOSITIONS FOR TREATING CONDITIONS ASSOCIATED WITH NLRP ACTIVITY” (Novartis AG, priority 2018, published 2023)
